Active and inactive are the calls of the source. The calls are words filed in the database; no cut-off is given here.
Legend:
[1] = biological target: T1, Hexokinase-4 (Rattus norvegicus) (UniProt P17712); assay: Maximal activation of glucokinase; NA - No activation at 30 uM
T1 sequence (whole entry): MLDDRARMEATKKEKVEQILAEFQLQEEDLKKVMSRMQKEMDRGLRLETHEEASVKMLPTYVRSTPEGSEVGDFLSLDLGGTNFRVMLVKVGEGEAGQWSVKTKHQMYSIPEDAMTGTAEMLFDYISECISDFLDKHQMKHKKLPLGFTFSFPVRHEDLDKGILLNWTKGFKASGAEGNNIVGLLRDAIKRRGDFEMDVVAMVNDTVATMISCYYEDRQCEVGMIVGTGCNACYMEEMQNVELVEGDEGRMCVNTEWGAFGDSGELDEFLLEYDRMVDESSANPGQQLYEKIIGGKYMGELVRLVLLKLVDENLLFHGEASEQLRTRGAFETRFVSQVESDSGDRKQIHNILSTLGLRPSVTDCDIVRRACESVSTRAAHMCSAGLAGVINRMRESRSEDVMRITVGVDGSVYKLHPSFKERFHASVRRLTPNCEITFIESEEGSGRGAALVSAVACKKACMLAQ

[2] = biological target: T2, Hexokinase-4 (Rattus norvegicus, UniProt P17712); assay: Effective concentration for glucokinase activity; NA - No activation at 30 uM; format: functional
T2 sequence (P17712 whole entry): T1 sequence (whole entry)

[3] = biological target: T2, Hexokinase-4; assay: Effective concentration for glucokinase activation with 5 mM glucose; format: functional
[4] = biological target: T2, Hexokinase-4; assay: Effective concentration for glucokinase activation; NA - No activation at 30 uM; format: functional
[5] = biological target: T1, Hexokinase-4 (Rattus norvegicus); assay: Maximal activation of glucokinase at 15 mM glucose
[6] = biological target: T2, Hexokinase-4; assay: Effective concentration for glucokinase activation with 15 mM glucose; format: functional

Structure (SMILES)	EC50 [3]	other results
O=C(Nc1ncc(Cl)s1)N(CC1CCCC1)c1ccc(Oc2ccccc2)cc1	–	Activity [1]: inactive; EC50 [2]: Not Active
CS(=O)(=O)c1ccc(N(CC2CCCC2)C(=O)Nc2nnc(C(F)(F)F)s2)cc1	34.2 µM	–
COc1ccc(N(CC2CCCC2)C(=O)Nc2nccs2)cn1	19.2 µM	–
CS(=O)(=O)c1ccc(N(Cc2ccco2)C(=O)Nc2ncc(Cl)s2)cc1	11.5 µM	–
COc1ccc(N(CC2CCCC2)C(=O)Nc2nncs2)cn1	–	EC50 [4]: Not Active; Activity [1]: inactive
CS(=O)(=O)c1ccc(N(CC2CCCC2)C(=O)Nc2ncc(Cl)s2)cc1	1.5 µM	–
N#Cc1ccc(N(CC2CCCC2)C(=O)Nc2ncc(Cl)s2)cn1	7.7 µM	–
O=C(Nc1ncc(Cl)s1)N(CC1CCCC1)c1ccc(C(F)(F)F)cc1	1.3 µM	–
CS(=O)(=O)c1ccc(N(CC2CCCO2)C(=O)Nc2ncc(Cl)s2)cc1 (stereo not given)	21.6 µM	–
NS(=O)(=O)c1ccc(N(CC2CCCC2)C(=O)Nc2ncc(Cl)s2)cc1	1.8 µM	–
CS(=O)(=O)c1ccc(N(CC2CCOC2)C(=O)Nc2ncc(Cl)s2)cc1 (stereo not given)	21.9 µM	–
CS(=O)(=O)c1ccc(N(Cc2ccsc2)C(=O)Nc2ncc(Br)s2)cc1	6.5 µM	–
O=C(Nc1ncc(Cl)s1)N(CC1CCCC1)c1ccc(Br)c(F)c1	0.7 µM	–
CS(=O)(=O)c1ccc(C(CC2CCCC2)C(=O)Nc2nccs2)cc1 (stereo not given)	2.2 µM	Activity [5]: 1.6; EC50 [6]: 1 µM
COc1ccc(N(CC2CCCC2)C(=O)Nc2ncc(Cl)s2)cn1	2.7 µM	–
COc1cccc(N(CC2CCCC2)C(=O)Nc2ncc(Cl)s2)c1	1.4 µM	–

Structure (SMILES)	EC50 [3]	other results
NC(=O)c1cccc(N(CC2CCCC2)C(=O)Nc2ncc(Cl)s2)c1	1 µM	–
CS(=O)(=O)c1ccc(N(Cc2ccsc2)C(=O)Nc2ncc(Cl)s2)cc1	6.8 µM	–
CC(=O)Nc1cccc(N(CC2CCCC2)C(=O)Nc2ncc(Cl)s2)c1	0.3 µM	–
COc1ccc(N(CC2CCCC2)C(=O)Nc2ncc(Br)s2)cn1	2 µM	–
CS(=O)(=O)c1ccc(N(Cc2nccs2)C(=O)Nc2ncc(Br)s2)cc1	24.1 µM	–
COc1ccc(N(CC2CCCC2)C(=O)NC2=NC(=O)CS2)cn1	29.1 µM	–
CS(=O)(=O)c1ccc(N(Cc2cccs2)C(=O)Nc2ncc(Cl)s2)cc1	6.6 µM	–
CS(=O)(=O)c1ccc(N(CC2CCCC2)C(=O)Nc2nc3ccc(S(C)(=O)=O)cc3s2)cc1	32.9 µM	–
N#Cc1ccc(N(CC2CCCC2)C(=O)Nc2ncc(Cl)s2)cc1	2.4 µM	–
O=C(Nc1nccs1)N(CC1CCCC1)c1ccc(F)c(F)c1	16.3 µM	–
O=C(Nc1ncc(Cl)s1)N(CC1CCCC1)c1ccc(F)c(F)c1	2.6 µM	–
Cc1ccc(N(CC2CCCC2)C(=O)Nc2ncc(Cl)s2)cc1Cl	0.4 µM	–
CS(=O)(=O)c1ccc(N(CC2CCOCC2)C(=O)Nc2ncc(Cl)s2)cc1	4.9 µM	–
O=C(Nc1ncc(Cl)s1)N(CC1CCCC1)c1ccc(N2CCOCC2)cc1	–	Activity [1]: inactive; EC50 [2]: Not Active
CS(=O)(=O)c1ccc(N(CC2CCCC2)C(=O)Nc2nccs2)cc1	16 µM	Activity [5]: 2.8; EC50 [6]: 9.7 µM
O=C(Nc1ccccn1)N(CC1CCCC1)c1ccc(F)c(F)c1	–	EC50 [4]: Not Active; Activity [1]: inactive

From ChEMBL document CHEMBL1142024, “Glucokinase-activating ureas” (Bioorg Med Chem Lett, 2005)
